{"source": "patent US20220326255A1", "about": "“METHODS OF MONITORING MUCOSAL HEALING” (MediBeacon Inc., priority 2021, published 2022)", "key": {"[1]": {"experiment": "Cumulative urinary percent recovery of enterally administered tracer, crossover study in healthy adults and adults with Crohn's disease", "assay_type": "in vivo, human", "conditions": "for percent of administered dose recovered in urine: Crohn's disease patients", "protocol": "(§1) A single center, randomized, open label, crossover study was performed to evaluate a solution containing 18.6 mg/mL of a pyrazine derived fluorophore (MB-102) at 1.5 or 3.0 mg/kg versus DSAT (L, 1000 mg and R, 200 mg) administered enterally.\n(§2) To compare the dynamic ranges of the fluorophore and DSAT clearances, healthy adults and adults with evidence of small bowel Crohn's disease on magnetic resonance enterography were enrolled. Participants were randomized to receive either the fluorophore tracer or the sugars on treatment day 1, followed by the other tracer 3-7 days later. Urine was collected at baseline and 1, 2, 4, 6, 8, 10, and 12 hours after tracer ingestion. The cumulative urinary percent recovery of the fluorophore tracer was calculated using an Ultra-Performance Liquid Chromatography system with fluorescence detection and cumulative L, R, and L:R ratios using a normal phase, isocratic HPLC-tandem ESI mass spectrometry."}, "[2]": {"experiment": "Safety and tolerability of orally administered MB-102 in the human study", "assay_type": "in vivo", "protocol": "as §1, §2\n5 healthy adults and 4 adults with Crohn's disease completed the study without serious adverse events. […] At 12 hours post-dose in the healthy participants, approximately 0.5% to 1.0% of the administered dose was recovered, reflecting the inability of MB-102 to transverse the intestinal barrier when gut permeability is normal. […]"}, "[3]": {"tested_on": "rat model of small bowel injury", "experiment": "Percent of administered dose of MB-102 recovered in urine, rat model of small bowel injury", "assay_type": "in vivo", "conditions": "rats with bowel injury compared to controls; oral gavage", "protocol": "(§3) To this end, MB-102 was tested in the rat model of small bowel injury (FIGS. 4A and 4B). Transdermal measurements were initiated prior to oral gavage of MB-102 and transdermal measurements, alongside urine, were collected over time. Based on urine samples the Percent of Administered Dose Recovered was higher in rats with bowel injury than controls (FIG. 4A)."}, "[4]": {"experiment": "MB-102 plasma concentration (HPLC) after oral dose in healthy and Crohn's disease participants", "assay_type": "in vivo, human", "conditions": "for concentration at 360 min / concentration at 720 min: human, plasma, po", "protocol": "In addition, two healthy participants and one participant with Crohn's disease were administered an oral dose of MB-102, and blood samples were collected at 6 and 12 hours post-administration. MB-102 plasma concentration levels were determined by HPLC."}, "[5]": {"tested_on": "rat model of bowel injury", "experiment": "Transdermal fluorescence detection of fluorophore after oral gavage, rat model of bowel injury", "assay_type": "in vivo", "conditions": "monitored continuously", "excerpt": "To probe the ability to assess gut function in a specimen-free and real-time manner, a dual-wavelength transdermal fluorescence detection system was utilized to monitor MB-301 and MB-404 in the rat model of bowel injury. […] Following anaesthetization, the fluorescence detection system was affixed with medical adhesive to a depilated area on the back of each rat. Transdermal fluorescence monitoring was then initiated to detect baseline fluorescence prior to delivery of MB-301 and MB-404 by oral gavage, and was monitored continuously. The concentration of MB-301 as determined by transdermal fluorescence measurements remained low in both injured and control animals (FIG. 2, dashed lines) as this fluorophore is comparatively rapidly absorbed by the small intestine and subsequently cleared. […] Therefore, transdermal detection of MB-301 and MB-404 fluorescence can be used to provide a non-invasive, real-time indication of gut health.\nas §3"}, "[6]": {"tested_on": "rat model of small bowel injury", "experiment": "Ratio of MB-404 to MB-301 in urine (HPLC) after oral gavage, rat model of small bowel injury", "assay_type": "in vivo", "conditions": "injured rats (indomethacin-induced bowel injury) compared to control rats", "excerpt": "DSAT was mimicked using two fluorophores with similar molecular weights to mannitol and lactulose, MB-301 and MB-404 (see Table 2).\nFurthermore, like both sugars used in the DSAT, MB-301 and MB-404 are not metabolized and are excreted by glomerular filtration, with neither (or negligible) tubular secretion nor reabsorption. To test the ability to distinguish between healthy and diseased gut, a rat model of small bowel injury was used with two injured and two control rats. The day after indomethacin-induced bowel injury, the rats were anaesthetized, a catheter was inserted for urine collection, and both fluorophores were delivered by oral gavage. Urine was collected prior to oral gavage and at a series of time points post-gavage. Concentrations of MB-301 and MB-404 in urine were determined using HPLC, and the ratio of their concentrations was plotted over time in FIG. 1."}, "[7]": {"conditions": "Control Participants, 360 min post-administration"}, "[8]": {"conditions": "Control Participants, 720 min post-administration"}}, "data": [{"smiles": "OC[C@H]1O[C@@H](O[C@@H]2[C@@H](CO)OC(O)(CO)[C@H]2O)[C@H](O)[C@@H](O)[C@H]1O", "note": "(mixture of isomers) [lactulose, reference compound]", "values": [{"measurement": "percent of administered dose recovered in urine", "setting": "[1]", "value": "wide range"}]}, {"smiles": "Nc1nc(C(=O)N[C@H](CO)C(=O)O)c(N)nc1C(=O)N[C@H](CO)C(=O)O", "note": "[MB-102, 3,6-diamino-2,5-bis{N-[(1R)-1-carboxy-2-hydroxyethyl]carbamoyl}pyrazine]", "values": [{"measurement": "serious adverse events", "setting": "[2]; 5 healthy adults and 4 adults with Crohn's disease", "value": "no serious adverse events"}, {"measurement": "tolerability", "setting": "[2]; healthy adults and adults with Crohn's disease", "value": "well tolerated"}, {"measurement": "percent of administered dose recovered in urine", "setting": "[1]", "value": "wide range"}, {"measurement": "urine excretion", "setting": "[1]; diseased participants with respect to controls, oral administration", "value": "increased"}, {"measurement": "MB-102 urine recovery", "setting": "[1]; patients in remission when the study was performed", "value": "near normal values"}, {"measurement": "Percent of Administered Dose Recovered (urine)", "setting": "[3]", "value": "higher"}, {"measurement": "Plasma Concentration", "setting": "[4]; [7]", "value": 21.3, "unit": "ng/mL"}, {"measurement": "Plasma Concentration", "setting": "[4]; [8]", "value": 16.7, "unit": "ng/mL"}, {"measurement": "concentration at 360 min", "setting": "[4]; [7]", "value": 21.2, "unit": "ng/mL"}, {"measurement": "concentration at 720 min", "setting": "[4]; [8]", "value": 16.8, "unit": "ng/mL"}, {"measurement": "concentration at 360 min", "setting": "[4]; Crohn's Disease Participant, 360 min post-administration", "value": 63.1, "unit": "ng/mL"}, {"measurement": "concentration at 720 min", "setting": "[4]; Crohn's Disease Participant, 720 min post-administration", "value": 26.5, "unit": "ng/mL"}]}, {"smiles": "Nc1nc(C(=O)O)c(N)nc1C(=O)O", "note": "[MB-301, 3,6-diamino-2,5-pyrazine-dicarboxylic acid]", "values": [{"measurement": "concentration as determined by transdermal fluorescence measurements", "setting": "[5]; control animals", "value": "remained low"}, {"measurement": "concentration as determined by transdermal fluorescence measurements", "setting": "[5]; injured animals", "value": "remained low"}]}, {"smiles": "O=C(NCC(O)CO)c1nc(NC[C@H](O)CO)c(C(=O)NCC(O)CO)nc1NC[C@H](O)CO", "note": "(stereo partly drawn) [MB-404, N^2,N^5-bis(2,3-dihydroxypropyl)-3,6-bis[(S)-2,3-dihydroxypropylamino]pyrazine-2,5-dicarboxamide]", "values": [{"measurement": "ratio of MB-404 to MB-301 in urine", "setting": "[6]", "value": "higher"}, {"measurement": "concentration as determined by transdermal fluorescence measurements", "setting": "[5]; control animals", "value": "remained low"}, {"measurement": "concentration as determined by transdermal fluorescence measurements", "setting": "[5]; injured animals", "value": "increased over time"}]}]}
